# Assay results reported in patent US9238670B2, “Aminoglycoside antibiotics with reduced ototoxicity” (priority 2013, dated 2016).
# Read-outs that look alike come from different tables or passages of the source.
# How the values were obtained:
# [1] = test system: hair cells of cochlea organ of corti cultures; experiment: in vitro
# Experimental: For example, an ototoxicity test that can be used includes the steps of (1) treating organ of corti cultures with a compound of the invention and a parent aminoglycoside compound for a certain period of time (e.g., 1 hour), respectively; (2) washing and then culturing the treated tissue for some period of time (e.g., 2 days); (3) fixing and staining the tissue so that hair cell counts can be obtained; and (4) comparing the hair cell counts between the tissue treated by the compound of the invention and the tissue treated by the parent aminoglycoside compound.
# Ototoxicity was also assayed using cochlea organ of corti cultures. The cultures were made at 4 days post birth (P4), cultured for 1 day and then treated for 1 hour with test compound. The tissue was then washed and cultured for an additional two days at which time the tissue is fixed and stained so that hair cell counts could be obtained. This method is similar to that used previously in characterizing aminoglycoside ototoxicity (Alharazneh et al., 2011). Fixed regions at the apex, middle, and base of the cochlea were imaged and cell counts obtained. […] Data were quantified across cochlear regions for this same compound. Quantification was by counting the number of outer hair cells present over a given distance. […] A dose response curve was created for the parent compound as well as the tested novel aminoglycoside. […] Other sisomicin derivatives were also tested for ototoxicity.
# mouse [2] = details: in vivo
# mouse [3] = experiment: LD50 after intraperitoneal injection in mouse model; type: in vivo; details: FIG. 5
# E. coli = E. coli assay of minimal inhibitory (MIC) and minimal bactericidal (MBC) concentrations; type: cell-based; details: FIGS. 1A and 1B
# Experimental: FIGS. 1A and 1B are bar graphs showing antimicrobial activities of a variety of sisomicin derivatives (MS=methyl sulfonyl, PS=phenyl sulfonyl, BZ=benzoyl, SiRho=rhodamine; and 1N and 3″ indicate substituents' position on sisomicin). The negative values reflect an arbitrary value indicating no detectable level of activity.
# Both antimicrobial activity and ototoxicity in several of the synthesized compounds were assessed. To test antimicrobial activity, an E. coli assay was used to test both minimal inhibitory concentrations (MIC) as well as minimal bactericidal concentrations (MBC). A cross section of results was presented in FIG. 1, for control and a variety of tested compounds. […] Antimicrobial activity remained stable for each compound over time.
smiles,measurement,setting,value
"CN(C(=O)c1ccccc1)[C@@H]1[C@@H](O)[C@@H](O[C@@H]2[C@@H](O)[C@H](O[C@H]3OC(CN)=CC[C@H]3N)[C@@H](N)C[C@H]2N)OC[C@]1(C)O [3″N-benzoyl sisomicin, 3″-Benzoyl sisomicin]",less toxic than sisomicin (ototoxicity),[1]; 1 h,about 60%
"CN[C@@H]1[C@@H](O)[C@@H](O[C@@H]2[C@@H](O)[C@H](O[C@H]3OC(CN)=CC[C@H]3N)[C@@H](N)C[C@H]2N)OC[C@]1(C)O [sisomicin, reference compound]",Kd at 1 h,[1],120 µM
same,hair cells in stained tissue (FIG. 2),[1],no hair cells remained
same,"outer hair cells killed, apex of cochlea",[1]; 1 h,about 60%
same,"outer hair cells killed, base and middle of cochlea",[1]; 1 h,more than 90%
same,hair cell loss in histological preparations of the cochlea,mouse [2],significant hair cell loss
"CN[C@@H]1[C@@H](O)[C@@H](O[C@@H]2[C@@H](O)[C@H](O[C@H]3OC(CN)=CC[C@H]3N)[C@@H](N)C[C@H]2NC(=O)c2ccccc2)OC[C@]1(C)O [1N benzoyl sisomicin, 1-benzoyl sisomicin]",less toxic than sisomicin (ototoxicity),[1]; 1 h,30%
"CN([C@@H]1[C@@H](O)[C@@H](O[C@@H]2[C@@H](O)[C@H](O[C@H]3OC(CN)=CC[C@H]3N)[C@@H](N)C[C@H]2NS(=O)(=O)c2ccccc2)OC[C@]1(C)O)S(=O)(=O)c1ccccc1 [1N,3″N-phenyl sulfonyl sisomicin, 1,3″-dibenzenesulfonyl-sisomicin]",ototoxicity compared in words,[1],about equally ototoxic as sisomicin
"CN([C@@H]1[C@@H](O)[C@@H](O[C@@H]2[C@@H](O)[C@H](O[C@H]3OC(CN)=CC[C@H]3N)[C@@H](N)C[C@H]2N)OC[C@]1(C)O)S(=O)(=O)c1ccccc1 [3″N-phenyl sulfonyl sisomicin, 3″-benzenesulfonyl-sisomicin]",ototoxicity compared in words,[1],about equally ototoxic as sisomicin
"CN([C@@H]1[C@@H](O)[C@@H](O[C@@H]2[C@@H](O)[C@H](O[C@H]3OC(CN)=CC[C@H]3N)[C@@H](N)C[C@H]2N)OC[C@]1(C)O)S(C)(=O)=O [3″N-methyl sulfonyl sisomicin, 3″-methylsulfonyl sisomicin]",ototoxicity compared in words,[1]; 1 h,about equally non-ototoxic as 1N-methyl sulfonyl sisomicin
"CN([C@@H]1[C@@H](O)[C@@H](O[C@@H]2[C@@H](O)[C@H](O[C@H]3OC(CN)=CC[C@H]3N)[C@@H](N)C[C@H]2NS(C)(=O)=O)OC[C@]1(C)O)S(C)(=O)=O [1N,3″N-methyl sulfonyl sisomicin, 1,3″-N-bis-methylsulfonyl sisomicin]",ototoxicity compared in words,[1]; 1 h,about equally non-ototoxic as 1N-methyl sulfonyl sisomicin
"CN[C@@H]1[C@@H](O)[C@@H](O[C@@H]2[C@@H](O)[C@H](O[C@H]3OC(CN)=CC[C@H]3N)[C@@H](N)C[C@H]2NS(C)(=O)=O)OC[C@]1(C)O [1N-methyl sulfonyl sisomicin, 1-N-methylsulfonyl sisomicin]",LD50 relative to LD50 of the parent sisomicin (fold higher),mouse [3],3 ×
same,Kd at 1 h,[1],1500 µM
same,fold less toxic than the parent compound,[1],more than ten-fold shift in sensitivity for toxicity
same,hair cell loss at any of the cochlea regions tested,[1],did not cause any hair cell loss
same,hair cells in stained tissue (FIG. 2),[1],no hair cell loss
same,fold less toxic than the parent compound,[1]; 1 h,more than 10 ×
same,hair cell loss in histological preparations of the cochlea,mouse [2],no loss of hair cells
same,"antimicrobial activity (MIC, MBC)",E. coli,retained antimicrobial activity
"CN[C@@H]1[C@@H](O)[C@@H](O[C@@H]2[C@@H](O)[C@H](O[C@H]3OC(CN)=CC[C@H]3N)[C@@H](N)C[C@H]2NS(=O)(=O)c2ccccc2)OC[C@]1(C)O [1N phenyl sulfonyl sisomicin, 1-Benzenesulfonyl-sisomicin]",less toxic than sisomicin (ototoxicity),[1]; 1 h,about 80%
